Measured values as given in US7332495B2 (priority 2002, dated 2008).
Structures can show the parent of a compound that is named as a salt.

Columns and labels:
[1] = tested on: Kunming mice; assay: Mice writhing model (acetic acid); format: in vivo; conditions: i.p. 20 mg/Kg, acetic acid 0.7% i.p. after 30 minutes, writhes in 5 minutes; for inhibition in vivo at 20 mg/kg: Mus musculus, ip, read-out: Analgesia (inhibition ratio of writhing)
Description: (§1) Kunming mice were used, with a male-female ratio of 50-50%. The test compound is administered i.p. (20 mg/Kg body weight) to the test groups, and physiological saline is administered P.O. (20 ml/Kg body weight) to the control group. After 30 minutes, acetic acid (0.7%, […] i.p.) was injected and the number of writhes was observed during a 5-minute period after acetic acid administration. The inhibition ratio of the writhing threshold was calculated. The alternating current tube is used to record the spontaneous activities for measuring sedation.
Two species of animals (mice and rats) and four types of pain testing models (i.p. 0.7% acetic acid, s.c. 5% formalin, hot plate 55° C., focused radiant heat) were used.

[2] = tested on: Kunming mice; assay: Sedation: spontaneous activities recorded with alternating current tube; format: in vivo; conditions: i.p. 20 mg/Kg, spontaneous activities; for inhibition in vivo at 20 mg/kg: Mus musculus, ip
Description: as §1, with “The test compound is administered i.p. (20 mg/Kg body weight) to the test groups, and physiological saline is administered P.O. (20 ml/Kg body weight) to the control group.” left out

| SMILES | inhibition in vivo at 20 mg/kg [1] [%] | inhibition in vivo at 20 mg/kg [2] [%] | also measured |
| --- | --- | --- | --- |
| CC(C(=O)c1ccccc1)N1CCN(Cc2ccc(Cl)cc2)CC1 (centres unmarked) (as salt: hydrochloride) |  |  | melting point: 260 to 262 °C |
| COc1ccc2cc(C(=O)C(C)N3CCN(Cc4ccccc4)CC3)ccc2c1Cl (centres unmarked) (as salt: hydrochloride) |  |  | melting point: 252 to 253 °C (dec.) |
| COc1ccc2cc(C(=O)C(C)N3CCN(Cc4ccc5c(c4)OCO5)CC3)ccc2c1Cl (centres unmarked) (as salt: hydrochloride) |  |  | melting point: 230 to 232 °C |
| COc1ccc2cc(C(=O)C(C)N3CCN(Cc4ccc(N)cc4)CC3)ccc2c1Cl (centres unmarked) (as salt: hydrochloride) |  |  | melting point: 206 to 208 °C |
| COc1cc(CN2CCN(C(C)C(=O)c3ccc4c(Cl)c(OC)ccc4c3)CC2)cc(OC)c1OC (centres unmarked) (as salt: hydrochloride) |  |  | melting point: 219 to 222 °C |
| O=C(CN1CCN(Cc2ccccc2)CC1)c1ccccc1 (as salt: hydrochloride) [IV-1, N^1-benzyl-N^4-phenacyl piperazine] |  |  | melting point: 238 to 239 °C |
| O=C(CN1CCN(Cc2ccc(Cl)cc2)CC1)c1ccccc1 (as salt: hydrochloride) [IV-3, N^1-(4-chlorobenzyl)-N^4-phenacyl piperazine] |  |  | melting point: 256 to 258 °C |
| O=C(CN1CCN(Cc2ccc([N+](=O)[O-])cc2)CC1)c1ccccc1 (as salt: hydrochloride) [IV-4, N^1-(4-nitrobenzyl)-N^4-phenacyl piperazine] |  |  | melting point: 236 to 238 °C |
| O=C(CN1CCN(Cc2ccccc2)CC1)c1ccc(Cl)cc1 (as salt: hydrochloride) [IV-6, N^1-benzyl-N^4-(4-chlorophenacyl)piperazine] |  |  | melting point: 231 to 233 °C |
| O=C(CN1CCN(Cc2ccccc2)CC1)c1ccc2ccccc2c1 (as salt: hydrochloride) [IV-7, N^1-benzyl-N^4-(2-naphthoylmethyl)piperazine] |  |  | melting point: 241 °C (dec.) |
| COc1ccc(C(=O)CN2CCN(Cc3ccccc3)CC2)cc1 (as salt: hydrochloride) [IV-8, N^1-benzyl-N^4-(4-methoxyphenacyl)piperazine] |  |  | melting point: 228 to 230 °C |
| O=C(CN1CCN(Cc2ccccc2)CC1)c1ccc([N+](=O)[O-])cc1 (as salt: hydrochloride) [IV-9, N^1-benzyl-N^4-(4-nitrophenacyl)piperazine] |  |  | melting point: 236 to 238 °C |
| O=C(CN1CCN(Cc2ccccc2)CC1)c1ccccc1 [IV-1, N^1-benzyl-N^4-phenacyl piperazine] | 68.2 | 65.6 |  |
| O=C(CN1CCN(Cc2ccc(Cl)cc2)CC1)c1ccccc1 [IV-3, N^1-(4-chlorobenzyl)-N^4-phenacyl piperazine] | 56.6 | 70.8 |  |
| O=C(CN1CCN(Cc2ccc([N+](=O)[O-])cc2)CC1)c1ccccc1 [IV-4, N^1-(4-nitrobenzyl)-N^4-phenacyl piperazine] | 93.2 | 39.6 |  |
| CCOC(=O)C(c1ccccc1)N1CCN(CC(=O)c2ccccc2)CC1 (centres unmarked) [IV-5, N^1-[(1-ethoxy-oxo-methyl)benzyl]-N^4-phenacyl piperazine] |  |  | Analgesia (inhibition ratio of writhing) [1]: 14%; Sedation [2]: 44% |
| O=C(CN1CCN(Cc2ccccc2)CC1)c1ccc(Cl)cc1 [IV-6, N^1-benzyl-N^4-(4-chlorophenacyl)piperazine] | 43 | 73 |  |
| O=C(CN1CCN(Cc2ccccc2)CC1)c1ccc2ccccc2c1 [IV-7, N^1-benzyl-N^4-(2-naphthoylmethyl)piperazine] | 25 | 43 |  |
| COc1ccc(C(=O)CN2CCN(Cc3ccccc3)CC2)cc1 [IV-8, N^1-benzyl-N^4-(4-methoxyphenacyl)piperazine] | 39 | 64 |  |
| O=C(CN1CCN(Cc2ccccc2)CC1)c1ccc([N+](=O)[O-])cc1 [IV-9, N^1-benzyl-N^4-(4-nitrophenacyl)piperazine] | 74 | 32 |  |
| O=C(CN1CCN(Cc2cccnc2)CC1)c1ccccc1 [IV-11, N^1-(3-pyridylmethyl)-N^4-phenacyl piperazine] | 86 | 91 |  |
| CC(C(=O)c1ccccc1)N1CCN(Cc2ccc(N)cc2)CC1 (centres unmarked) [IV-13, N^1-(4-aminobenzyl)-N^4-(1-benzoylethyl)piperazine] | 100 | 86 |  |

| SMILES | inhibition in vivo at 20 mg/kg [1] [%] | inhibition in vivo at 20 mg/kg [2] [%] | also measured |
| --- | --- | --- | --- |
| COc1ccc(OC)c(CN2CCN(CC(=O)c3ccccc3)CC2)c1 [IV-15, N^1-(2,5-dimethoxybenzyl)-N^4-phenacyl piperazine] | 80 | 93 |  |
| Nc1ccc(C(=O)CN2CCN(Cc3ccccc3)CC2)cc1 [IV-16, N^1-benzyl-N^4-(4-aminophenacyl)piperazine] | 63 | 51 |  |
| O=C(CCN1CCN(Cc2ccccc2)CC1)c1ccccc1 [IV-17, N^1-benzyl-N^4-(2-benzoylethyl)piperazine] | 45 | 75 |  |
| CC(=O)Nc1ccc(C(=O)CN2CCN(Cc3ccc([N+](=O)[O-])cc3)CC2)cc1 [IV-18, N^1-(4-nitrobenzyl)-N^4-[(4-acetamido)phenacyl]piperazine] | 64 | 65 |  |
| O=C(CN1CCN(Cc2ccc(F)cc2)CC1)c1ccc(Cl)cc1 [IV-20, N^1-(4-fluorobenzyl)-N^4-(4-chlorophenacyl)piperazine] | 45 | 60 |  |
| COc1ccc(C(=O)CN2CCN(CCC(O)c3ccccc3)CC2)cc1 (centres unmarked) [IV-22, N^1-(3-phenylpropyl-3-ol)-N^4-(4-methoxyphenacyl)piperazine] |  |  | Analgesia (inhibition ratio of writhing) [1]: 100%; Sedation [2]: 84% |
| COc1ccc([N+](=O)[O-])cc1CN1CCN(CC(=O)c2ccccc2)CC1 [IV-23, N^1-(2-methoxy-5-nitrobenzyl)-N^4-phenacyl piperazine] | 87 | 96 |  |
| CC(c1ccc(F)cc1)N1CCN(CC(=O)c2ccccc2)CC1 (centres unmarked) [IV-24, N^1-[1-(4-fluorophenyl)ethyl]-N^4-phenacyl piperazine] | 64 | 47 |  |
| COc1ccc(CN2CCN(C(C)C(=O)c3ccc4c(Cl)c(OC)ccc4c3)CC2)cc1 (centres unmarked) [IV-31, N^1-(4-methoxybenzyl)-N^4-[1-(5-chloro-6-methoxy-2-naphthoyl)ethyl]piperazine] | 45 | 7 |  |
| C[C@H](c1ccccc1)N1CCN(CC(=O)c2ccccc2)CC1 [IV-38, N^1—(R-1-phenylethyl)-N^4-phenacyl piperazine] | 51 | 99 |  |
| C[C@@H](c1ccccc1)N1CCN(CC(=O)c2ccccc2)CC1 [IV-39, N^1-(S-1-phenylethyl)-N^4-phenacyl piperazine] |  |  | Analgesia (inhibition ratio of writhing) [1]: 42%; Sedation [2]: 35% |
| Cc1ccc(C(=O)CN2CCN([C@H](C)c3ccccc3)CC2)cc1 [IV-41, N^1—(R-1-phenylethyl)-N^4-(4-methylphenacyl)piperazine] | 60 | 72 |  |
| Cc1ccc(C(=O)CN2CCN([C@@H](C)c3ccccc3)CC2)cc1 [IV-42, N^1-(S-1-phenylethyl)-N^4-(4-methylphenacyl)piperazine] |  |  | Analgesia (inhibition ratio of writhing) [1]: 44%; Sedation [2]: 0% |
| COc1ccc2cc(C(=O)C(C)N3CCN(C(C)c4ccccc4)CC3)ccc2c1Cl (centres unmarked) [IV-43, N^1-(1-phenylethyl)-N^4-[1-(5-chloro-6-methoxy-2-naphthoyl)ethyl]piperazine] | 42 | 4 |  |
| CC(C(=O)c1ccccc1)N1CCN(Cc2ccc([N+](=O)[O-])cc2)CC1 (centres unmarked) [IV-47, N^1-(4-nitrobenzyl)-N^4-(1-benzoylethyl)piperazine] | 28.8 | 26.4 |  |
| CC(=O)Nc1ccc(C(=O)CN2CCN(Cc3ccccc3)CC2)cc1 [IV-55, N^1-benzyl-N^4-(4-acetamidophenacyl)piperazine] | 21 | 52 |  |
| O=C(CN1CCN(Cc2cccc3ccccc23)CC1)c1ccccc1 [IV-58, N^1-(1-naphthalenylmethyl)-N^4-phenacyl piperazine] |  |  | Analgesia (inhibition ratio of writhing) [1]: 49%; Sedation [2]: 32% |
| O=C(CN1CCN(Cc2ccc3ccccc3c2)CC1)c1ccccc1 [IV-59, N^1-(2-naphthalenylmethyl)-N^4-phenacyl piperazine] | 45 | 0 |  |
| CC(c1ccc([N+](=O)[O-])cc1)N1CCN(CC(=O)c2ccccc2)CC1 (centres unmarked) [IV-60, N^1-[1-(4-nitrophenyl)ethyl]-N^4-phenacyl piperazine] | 37 | 66 |  |
| CCC(c1ccccc1)N1CCN(CC(=O)c2ccccc2)CC1 (centres unmarked) [IV-61, N^1-(1-phenylpropyl)-N^4-phenacyl piperazine] | 6 | 56 |  |
| O=C(CN1CCN(Cc2ccc([N+](=O)[O-])cc2)CC1)NCc1ccccc1 [IV-62, N^1-(4-nitrobenzyl)-N^4-[2-(benzylamino)-2-oxo-ethyl]piperazine] | 64 | 42 |  |
